Source: ChEMBL document CHEMBL1140189, “Lignans from the roots of Saururus chinensis” (J Nat Prod, 2008)

Key:
Assay type in all cases: functional, cell-based
HepG2 = experiment: Cytotoxicity against human HEPG2 cells by MTT assay
MCF7 = experiment: Cytotoxicity against human MCF7 cells by MTT assay
HT-29 = experiment: Cytotoxicity against human HT29 cells by MTT assay

Compound	IC50 (HepG2)	IC50 (MCF7)	IC50 (HT-29)
C[C@@H]([C@H](C)[C@H](O)c1ccc2c(c1)OCO2)[C@H](O)c1ccc2c(c1)OCO2 [SAUCERNEOL I]	> 100 µM	> 100 µM	21 µM
CC(Cc1cc2c(cc1O)OCO2)C(C)C(=O)c1ccc2c(c1)OCO2 (stereo not drawn) [SAUCERNEOL G]	62 µM	64 µM	55 µM
CC(Cc1cc2c(cc1O)OCO2)[C@@H](C)[C@H](O)c1ccc2c(c1)OCO2 (single isomer, unassigned) [SAUCERNEOL H]	61 µM	72 µM	53 µM
CC[C@@]1(O)C(=O)OCc2c1cc1n(c2=O)Cc2cc3ccccc3nc2-1 [CAMPTOTHECIN]	0.3 µM	10 µM	2 µM
COc1cc([C@H]2O[C@H](c3ccc4c(c3)OCO4)[C@H](C)[C@H]2C)ccc1O[C@H](C)[C@@H](O)c1ccc2c(c1)OCO2 [SAUCERNEOL F]	11 µM	> 100 µM	10 µM
COc1ccc([C@H](O)[C@@H](C)Oc2ccc([C@H]3O[C@H](c4ccc5c(c4)OCO5)[C@H](C)[C@H]3C)cc2OC)cc1OC [SAUCERNEOL D]	16 µM	> 100 µM	13 µM
